Measured values: patent US20130269064A1, “INSECTICIDAL COMPOUNDS” (SYNGENTA PARTICIPATIONS AG, priority 2010, published 2013)

Legend:
Format in all cases: in vivo
Plutella xylostella = Plutella xylostella (diamond back moth) artificial diet test; conditions: 144 h, 200 ppm (concentration in well 18 ppm), L2 larvae, 6 days, larval mortality and growth regulation
Method: (§1) Plutella xylostella (Diamond Back Moth): A 24-well microtiter plate (MTP) with artificial diet was treated with test solutions at an application rate of 200 ppm (concentration in well 18 ppm) by pipetting. After drying, the MTP's were infested with L2 larvae (7-12 per well). After an incubation period of 6 days, samples were checked for larval mortality and growth regulation.

Thrips tabaci = Thrips tabaci (onion thrips) sunflower leaf disc test; conditions: foliar, 168 h, 200 ppm sprayed on sunflower leaf discs, mixed ages, 7 days, mortality
Method: Thrips tabaci (Onion Thrips): Sunflower leaf discs were placed on agar in a 24-well microtiter plate and sprayed with test solutions at an application rate of 200 ppm. After drying, the leaf discs were infested with an […] population of mixed ages. After an incubation period of 7 days, samples were checked for mortality.

Spodoptera littoralis = Spodoptera littoralis (Egyptian cotton leafworm) cotton leaf disc test; conditions: foliar, 72 h, 200 ppm sprayed on cotton leaf discs, 5 L1 larvae, mortality, feeding behaviour, growth regulation 3 DAT
From the text: Spodoptera littoralis (Egyptian Cotton Leafworm): Cotton leaf discs were placed on agar in a 24-well microtiter plate and sprayed with test solutions at an application rate of 200 ppm. After drying, the leaf discs were infested with 5 L1 larvae. The samples were checked for mortality, feeding behaviour, and growth regulation 3 days after treatment (DAT).

Diabrotica balteata = Diabrotica balteata (corn root worm) artificial diet test; conditions: 120 h, 200 ppm (concentration in well 18 ppm), L2 larvae, 5 days, larval mortality and growth regulation
Method: as §1, with “Diabrotica balteata (Corn Root Worm):” for “Plutella xylostella (Diamond Back Moth):”, “with” for “with L2”, “(L2) (6-10” for “(7-12”, “5” for “6”, “mortality,” for “mortality”

Tetranychus urticae = Tetranychus urticae (two-spotted spider mite) bean leaf disc test; conditions: foliar, 192 h, 200 ppm sprayed on bean leaf discs, mixed ages, 8 days, egg, larval and adult mortality
From the text: Tetranychus urticae (Two-Spotted Spider Mite): Bean leaf discs on agar in 24-well microtiter plates were sprayed with test solutions at an application rate of 200 ppm. After drying, the leaf discs are infested with mite populations of mixed ages. 8 days later, discs are checked for egg mortality, larval mortality, and adult mortality.

Heliothis virescens = Heliothis virescens (tobacco budworm) egg/artificial diet test; conditions: 96 h, 200 ppm (concentration in well 18 ppm), eggs 0-24 h old on artificial diet, 4 days, egg mortality, larval mortality, growth regulation
Method: Heliothis virescens (Tobacco Budworm): Eggs (0-24 h old) were placed in 24-well microtiter plate on artificial diet and treated with test solutions at an application rate of 200 ppm (concentration in well 18 ppm) by pipetting. After an incubation period of 4 days, samples were checked for egg mortality, larval mortality and growth regulation.

Measured: pest or weed control at 200 ppm

Cn1nc(C(F)(F)C(F)(F)F)c(C(F)(F)F)c1NC(=O)c1cccc(NC(=O)c2ccc(F)cc2Cl)c1 [Compound D19]
not listed: Heliothis virescens
≥ 80%: all other assays above

Cn1nc(C(F)(F)C(F)(F)F)c(C(F)(F)F)c1NC(=O)c1cccc(NC(=O)c2ccccc2F)c1 [Compound D1]
not listed: Tetranychus urticae
≥ 80%: all other assays above

Cc1cc(C#N)ccc1C(=O)Nc1cc(C(=O)Nc2c(C(F)(F)F)c(C(F)(F)C(F)(F)F)nn2C)ccc1C#N [Compound A1, 3-(4-cyano-2-methyl-Benzoyl) amino-4-cyano-N-(2-methyl-5-pentafluoroethyl-4-trifluoromethyl-2H-pyrazol-3-yl)-benzamide]
≥ 80%: Thrips tabaci | Diabrotica balteata | Tetranychus urticae | Heliothis virescens

Cn1nc(C(F)(F)C(F)(F)F)c(C(F)(F)F)c1NC(=O)c1cccc(NC(=O)c2ccc(F)cc2F)c1 [Compound D22]
not listed: Tetranychus urticae
≥ 80%: all other assays above

Cn1nc(C(F)(F)C(F)(F)F)c(C(F)(F)F)c1NC(=O)c1ccc(C#N)c(NC(=O)c2ccccc2)c1 [Compound A2]
not listed: Tetranychus urticae
≥ 80%: all other assays above

Cc1cc(F)ccc1C(=O)Nc1cccc(C(=O)Nc2c(C(F)(F)F)c(C(F)(F)C(F)(F)F)nn2C)c1 [Compound D7]
not listed: Thrips tabaci
≥ 80%: all other assays above

Cc1cc(F)ccc1C(=O)Nc1cc(C(=O)Nc2c(C(F)(F)F)c(C(F)(F)C(F)(F)F)nn2C)ccc1Cl [Compound E7]
not listed: Thrips tabaci
≥ 80%: all other assays above

Cn1nc(C(F)(F)C(F)(F)F)c(C(F)(F)F)c1NC(=O)c1cccc(NC(=O)c2ccccc2)c1F [Compound B16]
≥ 80%: all assays above

Cn1nc(C(F)(F)C(F)(F)F)c(C(F)(F)F)c1NC(=O)c1cccc(NC(=O)c2ccc([N+](=O)[O-])cc2Cl)c1 [Compound D9]
≥ 80%: Thrips tabaci | Diabrotica balteata | Tetranychus urticae

Cn1nc(C(F)(F)C(F)(F)F)c(C(F)(F)F)c1NC(=O)c1cccc(NC(=O)c2ccc([N+](=O)[O-])cc2)c1F [Compound B5]
not listed: Thrips tabaci
≥ 80%: all other assays above

Cn1nc(C(F)(F)C(F)(F)F)c(C(F)(F)F)c1NC(=O)c1cccc(NC(=O)c2cccc(F)c2F)c1 [Compound D21]
not listed: Tetranychus urticae
≥ 80%: all other assays above

Cn1nc(C(F)(F)C(F)(F)F)c(C(F)(F)F)c1NC(=O)c1cccc(NC(=O)c2ccccc2Cl)c1 [Compound D3]
not listed: Tetranychus urticae
≥ 80%: all other assays above

Cn1nc(C(F)(F)C(F)(F)F)c(C(F)(F)F)c1NC(=O)c1cccc(NC(=O)c2cc(Cl)ccc2F)c1 [Compound D8]
≥ 80%: all assays above

Cn1nc(C(F)(F)C(F)(F)F)c(C(F)(F)F)c1NC(=O)c1cccc(NC(=O)c2ccc(C(F)(F)F)cc2)c1 [Compound D13]
not listed: Tetranychus urticae
≥ 80%: all other assays above

Cn1nc(C(F)(F)C(F)(F)F)c(C(F)(F)F)c1NC(=O)c1cccc(NC(=O)c2ccc(F)cc2)c1F [Compound B17]
not listed: Thrips tabaci
≥ 80%: all other assays above

Cn1nc(C(F)(F)C(F)(F)F)c(C(F)(F)F)c1NC(=O)c1cccc(NC(=O)c2ccccc2)c1 [Compound D16]
≥ 80%: Plutella xylostella | Thrips tabaci | Spodoptera littoralis | Diabrotica balteata

Cn1nc(C(F)(F)C(F)(F)F)c(C(F)(F)F)c1NC(=O)c1cccc(NC(=O)c2ccc(F)cc2)c1 [Compound D17]
not listed: Heliothis virescens
≥ 80%: all other assays above
